From patent US5607937A, “Piperazides of substituted phenylalanine derivatives as thrombin inhibitors” (priority 1993, dated 1997)
Read-outs that look alike come from different tables or passages of the source.

Key:
[1] = plasma concentration in rats after intravenous administration; format: in vivo; settings: rat; for concentration at 5 min / concentration at 0.25 h / concentration at 0.5 h / concentration at 1 h: plasma, iv; for concentration at 5 min / concentration at 0.25 h / concentration at 0.5 h / concentration at 1 h / Concentration in plasma: i.v. 1 mg/kg; for concentration at 0.25 h: 15 min; for concentration at 0.5 h: 30 min; for concentration at 1 h: 60 min
[2] = plasma concentration in rats after oral administration; format: in vivo; settings: rat
Method: A physiological NaCl solution of the substance to be tested was submitted to high pressure liquid chromatography (HPLC) in order to determine its characteristic substance-specific retention time with the chosen test conditions.
The substance to be tested was diluted in vitro in rat plasma. This solution was also submitted to HPLC to see whether the characteristic peak of the substance once again appeared at the substance-specific retention time.
Blood samples were taken at time intervals of 15 minutes, from which plasma samples were prepared by centrifugation; those samples were also submitted to HPLC to see whether the characteristic peak of the substance appeared again at the substance-specific retention time.
After administration, blood samples were taken from the test animals at time intervals from 2 to maximally 360 minutes and the blood level of the compounds to be tested was determined by HPLC.

[3] = plasma concentration in rats after rectal administration; format: in vivo; settings: rat; for concentration at 0.5 h / concentration at 1 h / concentration at 2 h / concentration at 3 h / concentration at 4 h / concentration at 5 h / concentration at 6 h: plasma; for concentration at 0.5 h: 30 min; for concentration at 1 h: 60 min; for concentration at 2 h: 120 min; for concentration at 3 h: 180 min; for concentration at 4 h: 240 min; for concentration at 5 h: 300 min; for concentration at 6 h: 360 min
thrombin = thrombin (Bos taurus, UniProt P00735); experiment: biochemical
[4] = tested on: coagulation in human plasma; experiment: thrombin time (TT) in human plasma
tPA = tPA (Homo sapiens, UniProt P00750); experiment: inhibition of tPA, dissociation constant Ki
Sequence of tPA (P00750 36-562): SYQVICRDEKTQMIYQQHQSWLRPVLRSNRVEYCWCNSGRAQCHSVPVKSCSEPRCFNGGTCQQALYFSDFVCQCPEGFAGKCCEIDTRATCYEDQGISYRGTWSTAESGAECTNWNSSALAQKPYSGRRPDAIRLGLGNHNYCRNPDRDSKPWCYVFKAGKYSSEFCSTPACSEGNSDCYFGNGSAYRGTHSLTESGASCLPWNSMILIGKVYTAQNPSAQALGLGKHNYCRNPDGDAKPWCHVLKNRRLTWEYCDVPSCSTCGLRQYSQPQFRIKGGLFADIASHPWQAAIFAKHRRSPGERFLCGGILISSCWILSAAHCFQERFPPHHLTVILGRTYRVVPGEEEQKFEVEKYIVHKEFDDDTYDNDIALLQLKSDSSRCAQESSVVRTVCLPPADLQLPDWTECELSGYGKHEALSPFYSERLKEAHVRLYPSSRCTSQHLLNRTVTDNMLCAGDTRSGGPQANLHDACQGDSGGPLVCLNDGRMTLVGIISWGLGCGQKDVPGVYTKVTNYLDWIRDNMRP

[5] = tested on: coagulation in human plasma; experiment: prothrombin time (PT, Quick value) in human plasma
factor XIIa = molecular target: T1, factor XIIa (Homo sapiens, UniProt P00748); experiment: inhibition of factor XIIa, dissociation constant Ki
T1 sequence (P00748 373-615 limits assumed): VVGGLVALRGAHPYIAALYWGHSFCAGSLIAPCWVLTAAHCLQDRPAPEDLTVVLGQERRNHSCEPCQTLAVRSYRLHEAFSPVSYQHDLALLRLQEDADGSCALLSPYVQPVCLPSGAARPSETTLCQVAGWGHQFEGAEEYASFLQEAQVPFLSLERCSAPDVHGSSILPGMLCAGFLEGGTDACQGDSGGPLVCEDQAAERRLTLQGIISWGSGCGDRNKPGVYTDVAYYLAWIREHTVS

plasma kallikrein = plasma kallikrein (Homo sapiens, UniProt P03952); experiment: inhibition of plasma kallikrein, dissociation constant Ki
Sequence of plasma kallikrein (P03952 391-638 limits assumed, species assumed): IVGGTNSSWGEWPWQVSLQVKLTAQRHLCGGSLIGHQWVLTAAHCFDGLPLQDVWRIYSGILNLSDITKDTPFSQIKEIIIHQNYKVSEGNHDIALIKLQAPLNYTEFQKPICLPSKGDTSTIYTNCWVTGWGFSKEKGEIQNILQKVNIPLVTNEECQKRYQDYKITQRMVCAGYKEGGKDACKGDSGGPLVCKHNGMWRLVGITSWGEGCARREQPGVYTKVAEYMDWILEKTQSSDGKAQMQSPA
Sequence of plasma kallikrein (P03952 20-390 partner limits assumed, species assumed): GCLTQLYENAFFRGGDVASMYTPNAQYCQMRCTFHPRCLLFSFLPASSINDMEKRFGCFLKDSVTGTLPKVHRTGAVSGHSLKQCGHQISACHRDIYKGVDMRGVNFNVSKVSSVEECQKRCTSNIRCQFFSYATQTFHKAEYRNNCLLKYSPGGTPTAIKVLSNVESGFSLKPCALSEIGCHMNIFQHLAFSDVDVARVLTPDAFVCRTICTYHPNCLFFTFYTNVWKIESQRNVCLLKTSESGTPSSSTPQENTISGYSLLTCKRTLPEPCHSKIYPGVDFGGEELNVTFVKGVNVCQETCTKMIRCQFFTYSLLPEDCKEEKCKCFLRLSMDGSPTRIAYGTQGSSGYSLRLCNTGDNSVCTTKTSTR

glandular kallikrein = glandular kallikrein (Sus scrofa, UniProt P00752); experiment: inhibition of glandular kallikrein, dissociation constant Ki
Sequence of glandular kallikrein (P00752 8-246): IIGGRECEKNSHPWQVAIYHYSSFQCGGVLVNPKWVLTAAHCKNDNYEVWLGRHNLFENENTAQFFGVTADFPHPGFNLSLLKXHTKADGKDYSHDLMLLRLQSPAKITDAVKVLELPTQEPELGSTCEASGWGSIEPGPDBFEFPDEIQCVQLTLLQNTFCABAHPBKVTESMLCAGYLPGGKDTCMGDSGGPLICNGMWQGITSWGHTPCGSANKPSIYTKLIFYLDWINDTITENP

[6] = tested on: coagulation in human plasma; experiment: activated partial thromboplastin time (aPTT) in human plasma
in vivo = settings: rat
[7] = tested on: coagulation in rat plasma; experiment: thrombin time in rat plasma after rectal application; format: in vivo; settings: rectal 5 mg/kg
Method: (§1) After rectal administration of the compounds to be tested, the anticoagulant effect was determined in the plasma of experimental animals.

[8] = tested on: coagulation in rat plasma; experiment: aPTT in rat plasma after rectal application; format: in vivo; settings: rectal 5 mg/kg
Method: as §1

[9] = concentration in rat plasma in the anticoagulant study after rectal application; format: in vivo; settings: rectal 5 mg/kg
trypsin = molecular target: T2, trypsin (Bos taurus, UniProt P00760); experiment: inhibition of trypsin, dissociation constant Ki; format: biochemical; set-up: thrombin and the related enzymes trypsin, plasmin, factor Xa, factor XIIa; settings: Table 1; read-out: Ki, Trypsin
T2 sequence (P00760 24-246): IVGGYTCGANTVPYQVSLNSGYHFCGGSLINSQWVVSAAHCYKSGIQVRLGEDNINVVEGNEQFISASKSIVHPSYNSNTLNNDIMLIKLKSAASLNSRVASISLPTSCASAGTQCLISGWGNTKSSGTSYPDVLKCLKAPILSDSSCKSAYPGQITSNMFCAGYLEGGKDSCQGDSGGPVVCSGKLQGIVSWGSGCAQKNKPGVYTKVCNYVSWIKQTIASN
Method: The biological activity of the compounds of the present invention was determined in vitro as well as in vivo.

CCOC(=O)N1CCN(C(=O)C(Cc2cccc(C(=N)N)c2)NS(=O)(=O)c2ccc3ccccc3c2)CC1 (racemic) [X, N-α-(2-naphthylsulfonyl)-(D,L)-3-amidinophenylalanine-4-ethoxycarbonyl piperazide, reference compound]
concentration at 5 min [1]: 812 ng/mL | concentration at 0.25 h [1]: 169 ng/mL | concentration at 0.5 h [1]: 40 ng/mL | concentration at 1 h [1]: 8 ng/mL | Concentration in plasma ([1]; 120 min): 0 ng/mL | Concentration in plasma ([1]; 180 min): 0 ng/mL | concentration at 0.5 h ([2]; plasma, oral 50 mg/kg, 30 min): 33 ng/mL | concentration at 1 h ([2]; plasma, oral 50 mg/kg, 60 min): 10 ng/mL | Concentration in plasma ([2]; oral 50 mg/kg, 120 min): 0 ng/mL | Concentration in plasma ([2]; oral 50 mg/kg, 180 min): 0 ng/mL | Concentration in plasma ([2]; oral 50 mg/kg, 240 min): 0 ng/mL | Concentration in plasma ([2]; oral 50 mg/kg, 300 min): 0 ng/mL | concentration at 0.5 h ([3]; rectal 100 mg/kg): 3260 ng/mL | concentration at 1 h ([3]; rectal 100 mg/kg): 2370 ng/mL | concentration at 2 h ([3]; rectal 100 mg/kg): 1800 ng/mL | concentration at 3 h ([3]; rectal 100 mg/kg): 898 ng/mL | concentration at 4 h ([3]; rectal 100 mg/kg): 626 ng/mL | concentration at 5 h ([3]; rectal 100 mg/kg): 592 ng/mL | concentration at 6 h ([3]; rectal 100 mg/kg): 448 ng/mL | Ki (thrombin): 0.67 µM | Concentr. to double the Thrombin time [4]: 4.1 µmol/L | Ki (tPA): 370 µM | Concentr. to double the Prothrombin time [5]: 45 µmol/L | Ki (factor XIIa): 210 µM | Ki (plasma kallikrein): 30 µM | Ki (glandular kallikrein): > 1000 µM | Concentr. to double the aPTT [6]: 20 µmol/L

Cl.Cl.N=C(N)c1cccc(C[C@H](NS(=O)(=O)c2ccc3ccccc3c2)C(=O)N2CCN(CCO)CC2)c1 [Compound 3, Nα-(2-naphthylsulfonyl)-3-amidino-(L)-phenylalanine-4-(2-hydroxyethyl) -piperazide dihydrochloride]
concentration at 5 min [1]: 2210 ng/mL | concentration at 0.25 h [1]: 145 ng/mL | concentration at 0.5 h [1]: 313 ng/mL | concentration at 1 h [1]: 112 ng/mL | elimination in words ([1]; i.v.): eliminated at comparable rate | Concentration in plasma ([1]; 120 min): 0 ng/mL | Concentration in plasma ([1]; 180 min): 0 ng/mL | resorption in words ([2]; oral): only slightly resorbed | concentration at 0.5 h ([3]; rectal 20 mg/kg): 7260 ng/mL | concentration at 1 h ([3]; rectal 20 mg/kg): 3800 ng/mL | concentration at 2 h ([3]; rectal 20 mg/kg): 1740 ng/mL | concentration at 3 h ([3]; rectal 20 mg/kg): 814 ng/mL | concentration at 4 h ([3]; rectal 20 mg/kg): 215 ng/mL | concentration at 5 h ([3]; rectal 20 mg/kg): 61 ng/mL | concentration at 6 h ([3]; rectal 20 mg/kg): 34 ng/mL | detectable in plasma after rectal administration ([3]; rectal): ≥ 6 h | concentration at 0.5 h (in vivo; plasma, intraduodenal 100 mg/kg, 30 min): 3820 ng/mL | Concentration in plasma (in vivo; in vivo, other, 100 mg/kg, 120 min): 361 ng/mL | Concentration in plasma (in vivo; intraduodenal 100 mg/kg, 30 min, dihydrochloride, 100 mg/kg): 2262 ng/mL | Concentration in plasma (in vivo; intraduodenal 100 mg/kg, 60 min, dihydrochloride, 100 mg/kg): 2172 ng/mL | Concentration in plasma (in vivo; intraduodenal 100 mg/kg, 60 min, listed as 3*, dihydrochloride, 100 mg/kg): 795 ng/mL | Concentration in plasma (in vivo; intraduodenal 100 mg/kg, 120 min): 1457 ng/mL | Concentration in plasma (in vivo; intraduodenal 100 mg/kg, 180 min, dihydrochloride, 100 mg/kg): 945 ng/mL | Concentration in plasma (in vivo; intraduodenal 100 mg/kg, 180 min, listed as 3*, dihydrochloride, 100 mg/kg): 228 ng/mL | Concentration in plasma (in vivo; intraduodenal 100 mg/kg, 240 min, dihydrochloride, 100 mg/kg): 1277 ng/mL | Concentration in plasma (in vivo; intraduodenal 100 mg/kg, 240 min, listed as 3*, dihydrochloride, 100 mg/kg): 144 ng/mL | Concentration in plasma (in vivo; intraduodenal 100 mg/kg, 300 min, dihydrochloride, 100 mg/kg): 1400 ng/mL | Concentration in plasma (in vivo; intraduodenal 100 mg/kg, 300 min, listed as 3*, dihydrochloride, 100 mg/kg): 276 ng/mL | Clotting time, Thrombin time ([7]; 0 min): 45 s | Clotting time, Thrombin time ([7]; 30 min): 300 s | Clotting time, Thrombin time ([7]; 60 min): 298 s | Clotting time, Thrombin time ([7]; 120 min): 165 s | Clotting time, Thrombin time ([7]; 180 min): 114 s | Clotting time, aPTT ([8]; 0 min): 23.5 s | Clotting time, aPTT ([8]; 30 min): 39.8 s | Clotting time, aPTT ([8]; 60 min): 32.8 s | Clotting time, aPTT ([8]; 120 min): 27.4 s | Clotting time, aPTT ([8]; 180 min): 26.0 s | concentration at 0.5 h ([9]; plasma, 30 min): 897 ng/mL | concentration at 1 h ([9]; plasma, 60 min): 462 ng/mL | concentration at 2 h ([9]; plasma, 120 min): 355 ng/mL | concentration at 3 h ([9]; plasma, 180 min): 49 ng/mL | Concentration in plasma ([9]; 0 min): 0 ng/mL | Ki (thrombin): 0.036 µM | Concentr. to double the Thrombin time [4]: 0.14 µmol/L | Ki (tPA): 190 µM | Concentr. to double the Prothrombin time [5]: 1.3 µmol/L | Ki (factor XIIa; Ki, Factor XIIa, Table 1): 320 µM | Ki (plasma kallikrein): 25 µM | Ki (glandular kallikrein): > 1000 µM | Concentr. to double the aPTT [6]: 0.65 µmol/L | Ki (trypsin): 0.6 µM
